Measured values from US6841569B2, “Carbamates of 2-heterocyclic-1,2-ethanediols” (SK Corporation, priority 2001, dated 2005).

Tests used:
mice (ICR strain) = assay: Maximal ElectroShock (MES) test; assay type: in vivo; settings: dosed i.p., Hour 1, elimination of hindlimb tonic extension, 50 mA-60 Hz for 0.2 second
Procedure: The therapeutic use of the compounds of formula I as anticonvulsants has been established by the “Maximal ElectroShock (MES)” test, which is a well-established pharmacological screening method for anticonvulsants against partial seizures, and the results are presented in Table I. The procedure employed in the MES test for anticonvulsants is as follows. The dosing solutions of the compounds to be tested were prepared in saline. The subjects, namely, mice (ICR strain), were dosed i.p. After the designated number of hours, maximal electroshock was induced in mice via corneal electrodes using IITC Life Science model 11A Shocker at 50 mA-60 Hz for 0.2 second. […] Median efficacy dose (ED50) levels were determined using three different dose levels with at least 6 mice in each group.

Structure (SMILES) | MES ED50 (mice (ICR strain)) | melting point
NC(=O)OCC(OC(N)=O)c1ccc(C(F)(F)F)s1 (stereo not drawn) [Example 14, (2-(5-trifluoromethyl-2-thienyl)-2-carbomoyloxyethyl)oxocarboxamide] | 12.6 mg/kg | 
CNC(=O)OCC(OC(=O)NC)c1ccc(Cl)s1 (stereo not drawn) [Example 7] | 37.4 mg/kg | 
O=NC(=O)CC(O)c1cccs1 (stereo not drawn) [Example 21, (2-(2-thienyl)-2-hydroxyethyl)oxocarboxamide] |  | 71 to 73 °C
